Measurements reported in article PMC8698454, “Anti-Colonization Effect of Au Surfaces with Self-Assembled Molecular Monolayers Functionalized with Antimicrobial Peptides on S. epidermidis” (Antibiotics, 2021).
≈ marks a conversion by molar mass, not a printed value. Like-named read-outs stand apart in the source and are kept apart here. Where a SMILES comes first, the peptide text is derived from it. [ ]: non-standard residue; d: D form. Lys(N3) = [N-]=[N+]=NCCCC[C@H](N)C(=O)O

Key:
Gram-positive bacteria = format: cell-based, S. aureus and S. epidermidis
Procedure: (§1) The minimal inhibitory concentration (MIC) of peptides 1a, 1b, 2a, and 2b were determined by broth microdilution according to the Clinical Laboratory Standard Institute (CLSI) method […]-A9. The MICs of the peptides 1c, 1d, 2c, and 2d were determined by broth dilution according to the European Committee for Antimicrobial Susceptibility Testing (EUCAST). Final concentrations of 0.5-256 μg/mL were tested against a panel of reference bacteria-S. aureus (ATCC 9144), S. epidermidis (1457), E. coli (ATCC 25922), and P. aeruginosa (ATCC 27853). Each strain was tested in biological triplicate. The MIC values were defined as the lowest concentration of the peptides resulting in no visual growth.

[1] = test system: Escherichia coli ATCC 25922; format: cell-based; settings: for Antimicrobial Activity (MIC) E. coli: ATCC 25922; for MIC E. coli ATCC 25922: Table S3
Procedure: as §1

[2] = test system: Staphylococcus aureus ATCC 9144; format: cell-based; settings: for Antimicrobial Activity (MIC) S. aureus: ATCC 9144; for MIC S. aureus ATCC 9144: Table S3
Procedure: as §1

[3] = test system: Staphylococcus epidermidis 1457; format: cell-based; settings: for Antimicrobial Activity (MIC) S. epidermidis: 1457; for MIC S. epidermidis 1457: Table S3
Procedure: as §1

[4] = test system: Pseudomonas aeruginosa ATCC 27853; format: cell-based; settings: for Antimicrobial Activity (MIC) P. aeruginosa: ATCC 27853; for MIC P. aeruginosa ATCC 27853: Table S3
Procedure: as §1

Gram-negative bacteria = format: cell-based, E. coli and P. aeruginosa
Procedure: as §1

[5] = technical replicate 1, biological replicate BR1
[6] = technical replicate 1, biological replicate BR2
[7] = technical replicate 1, biological replicate BR3
[8] = technical replicate 2, biological replicate BR1
[9] = technical replicate 2, biological replicate BR2
[10] = technical replicate 2, biological replicate BR3
[11] = technical replicate 3, biological replicate BR1
[12] = technical replicate 3, biological replicate BR2
[13] = technical replicate 3, biological replicate BR3

`[N-]=[N+]=NCCCC[C@H](NC(=O)[C@H](Cc1ccccc1)NC(=O)[C@H](CCCNC(=N)N)NC(=O)[C@H](Cc1c[nH]c2ccccc12)NC(=O)[C@H](Cc1c[nH]c2ccccc12)NC(=O)[C@@H](N)CCCNC(=N)N)C(N)=O` [1c] (H-RWWRF[Lys(N3)]-NH2) was tested, and the “MIC against Gram-positive bacteria” value (Gram-positive bacteria) was 16 to 32 µg/mL, the “Antimicrobial Activity (MIC) E. coli” value [1] was 64 µg/mL and the “MIC E. coli ATCC 25922” value [1, 5] was 32 µg/mL (≈ 31.9 µM). For the same molecule, the “MIC E. coli ATCC 25922” value [1, 6] was 64 µg/mL (≈ 63.8 µM), the “MIC E. coli ATCC 25922” value [1, 7] was 32 µg/mL (≈ 31.9 µM) and the “MIC E. coli ATCC 25922” value [1, 8] was 64 µg/mL (≈ 63.8 µM). The “MIC E. coli ATCC 25922” value [1, 9] was 64 µg/mL (≈ 63.8 µM), the “MIC E. coli ATCC 25922” value [1, 10] was 32 µg/mL (≈ 31.9 µM) and the “MIC E. coli ATCC 25922” value [1, 11] was 64 µg/mL (≈ 63.8 µM). For the same molecule, the “MIC E. coli ATCC 25922” value [1, 12] was 64 µg/mL (≈ 63.8 µM), the “MIC E. coli ATCC 25922” value [1, 13] was 32 µg/mL (≈ 31.9 µM) and the “Antimicrobial Activity (MIC) S. aureus” value [2] was 32 µg/mL. The “MIC S. aureus ATCC 9144” value [2, 5] was 32 µg/mL (≈ 31.9 µM), the “MIC S. aureus ATCC 9144” value [2, 6] was 32 µg/mL (≈ 31.9 µM) and the “MIC S. aureus ATCC 9144” value [2, 7] was 32 µg/mL (≈ 31.9 µM). For the same molecule, the “MIC S. aureus ATCC 9144” value [2, 8] was 32 µg/mL (≈ 31.9 µM), the “MIC S. aureus ATCC 9144” value [2, 9] was 32 µg/mL (≈ 31.9 µM) and the “MIC S. aureus ATCC 9144” value [2, 10] was 32 µg/mL (≈ 31.9 µM). The “MIC S. aureus ATCC 9144” value [2, 11] was 32 µg/mL (≈ 31.9 µM), the “MIC S. aureus ATCC 9144” value [2, 12] was 32 µg/mL (≈ 31.9 µM) and the “MIC S. aureus ATCC 9144” value [2, 13] was 32 µg/mL (≈ 31.9 µM). The “Antimicrobial Activity (MIC) S. epidermidis” value [3] was 16 µg/mL, the “MIC S. epidermidis 1457” value [3, 5] was 16 µg/mL (≈ 15.9 µM) and the “MIC S. epidermidis 1457” value [3, 6] was 16 µg/mL (≈ 15.9 µM). The “MIC S. epidermidis 1457” value [3, 7] was 16 µg/mL (≈ 15.9 µM), the “MIC S. epidermidis 1457” value [3, 8] was 16 µg/mL (≈ 15.9 µM) and the “MIC S. epidermidis 1457” value [3, 9] was 16 µg/mL (≈ 15.9 µM). For the same molecule, the “MIC S. epidermidis 1457” value [3, 10] was 16 µg/mL (≈ 15.9 µM), the “MIC S. epidermidis 1457” value [3, 11] was 16 µg/mL (≈ 15.9 µM) and the “MIC S. epidermidis 1457” value [3, 12] was 16 µg/mL (≈ 15.9 µM). The “MIC S. epidermidis 1457” value [3, 13] was 16 µg/mL (≈ 15.9 µM), the “Antimicrobial Activity (MIC) P. aeruginosa” value [4] was 64 µg/mL and the “MIC P. aeruginosa ATCC 27853” value [4, 5] was 64 µg/mL (≈ 63.8 µM). For the same molecule, the “MIC P. aeruginosa ATCC 27853” value [4, 6] was 64 µg/mL (≈ 63.8 µM), the “MIC P. aeruginosa ATCC 27853” value [4, 7] was 32 µg/mL (≈ 31.9 µM) and the “MIC P. aeruginosa ATCC 27853” value [4, 8] was 64 µg/mL (≈ 63.8 µM). The “MIC P. aeruginosa ATCC 27853” value [4, 9] was 64 µg/mL (≈ 63.8 µM), the “MIC P. aeruginosa ATCC 27853” value [4, 10] was 32 µg/mL (≈ 31.9 µM) and the “MIC P. aeruginosa ATCC 27853” value [4, 11] was 64 µg/mL (≈ 63.8 µM). The “MIC P. aeruginosa ATCC 27853” value [4, 12] was 64 µg/mL (≈ 63.8 µM), the “MIC P. aeruginosa ATCC 27853” value [4, 13] was 32 µg/mL (≈ 31.9 µM) and the “MIC against Gram-negative bacteria” value (Gram-negative bacteria) was 64 µg/mL (≈ 63.8 µM).
`[N-]=[N+]=NCCCC[C@@H]1NC(=O)[C@H](Cc2ccccc2)NC(=O)[C@H](CCCNC(=N)N)NC(=O)[C@H](Cc2c[nH]c3ccccc23)NC(=O)[C@H](Cc2c[nH]c3ccccc23)NC(=O)[C@H](CCCNC(=N)N)NC1=O` [1d] (cyclo(RWWRF[Lys(N3)])) was tested, and the “MIC against Gram-positive bacteria” value (Gram-positive bacteria) was 8 µg/mL (≈ 8.11 µM), the “Antimicrobial Activity (MIC) E. coli” value [1] was 64 µg/mL and the “MIC E. coli ATCC 25922” value [1, 5] was 64 µg/mL (≈ 64.9 µM). For the same molecule, the “MIC E. coli ATCC 25922” value [1, 6] was 64 µg/mL (≈ 64.9 µM), the “MIC E. coli ATCC 25922” value [1, 7] was 64 µg/mL (≈ 64.9 µM) and the “MIC E. coli ATCC 25922” value [1, 8] was 64 µg/mL (≈ 64.9 µM). The “MIC E. coli ATCC 25922” value [1, 9] was 64 µg/mL (≈ 64.9 µM), the “MIC E. coli ATCC 25922” value [1, 10] was 64 µg/mL (≈ 64.9 µM) and the “MIC E. coli ATCC 25922” value [1, 11] was 64 µg/mL (≈ 64.9 µM). The “MIC E. coli ATCC 25922” value [1, 12] was 64 µg/mL (≈ 64.9 µM), the “MIC E. coli ATCC 25922” value [1, 13] was 64 µg/mL (≈ 64.9 µM) and the “Antimicrobial Activity (MIC) S. aureus” value [2] was 8 µg/mL. The “MIC S. aureus ATCC 9144” value [2, 5] was 8 µg/mL (≈ 8.11 µM), the “MIC S. aureus ATCC 9144” value [2, 6] was 16 µg/mL (≈ 16.2 µM) and the “MIC S. aureus ATCC 9144” value [2, 7] was 8 µg/mL (≈ 8.11 µM). The “MIC S. aureus ATCC 9144” value [2, 8] was 8 µg/mL (≈ 8.11 µM), the “MIC S. aureus ATCC 9144” value [2, 9] was 16 µg/mL (≈ 16.2 µM) and the “MIC S. aureus ATCC 9144” value [2, 10] was 8 µg/mL (≈ 8.11 µM). For the same molecule, the “MIC S. aureus ATCC 9144” value [2, 11] was 8 µg/mL (≈ 8.11 µM), the “MIC S. aureus ATCC 9144” value [2, 12] was 16 µg/mL (≈ 16.2 µM) and the “MIC S. aureus ATCC 9144” value [2, 13] was 16 µg/mL (≈ 16.2 µM). For the same molecule, the “Antimicrobial Activity (MIC) S. epidermidis” value [3] was 8 µg/mL, the “MIC S. epidermidis 1457” value [3, 5] was 8 µg/mL (≈ 8.11 µM) and the “MIC S. epidermidis 1457” value [3, 6] was 8 µg/mL (≈ 8.11 µM). The “MIC S. epidermidis 1457” value [3, 7] was 16 µg/mL (≈ 16.2 µM), the “MIC S. epidermidis 1457” value [3, 8] was 8 µg/mL (≈ 8.11 µM) and the “MIC S. epidermidis 1457” value [3, 9] was 8 µg/mL (≈ 8.11 µM). For the same molecule, the “MIC S. epidermidis 1457” value [3, 10] was 16 µg/mL (≈ 16.2 µM), the “MIC S. epidermidis 1457” value [3, 11] was 8 µg/mL (≈ 8.11 µM) and the “MIC S. epidermidis 1457” value [3, 12] was 8 µg/mL (≈ 8.11 µM). For the same molecule, the “MIC S. epidermidis 1457” value [3, 13] was 16 µg/mL (≈ 16.2 µM), the “Antimicrobial Activity (MIC) P. aeruginosa” value [4] was 128 µg/mL and the “MIC P. aeruginosa ATCC 27853” value [4, 5] was 128 µg/mL (≈ 130 µM). For the same molecule, the “MIC P. aeruginosa ATCC 27853” value [4, 6] was 256 µg/mL (≈ 260 µM), the “MIC P. aeruginosa ATCC 27853” value [4, 7] was 128 µg/mL (≈ 130 µM) and the “MIC P. aeruginosa ATCC 27853” value [4, 8] was 128 µg/mL (≈ 130 µM). For the same molecule, the “MIC P. aeruginosa ATCC 27853” value [4, 9] was 256 µg/mL (≈ 260 µM), the “MIC P. aeruginosa ATCC 27853” value [4, 10] was 128 µg/mL (≈ 130 µM) and the “MIC P. aeruginosa ATCC 27853” value [4, 11] was 128 µg/mL (≈ 130 µM). For the same molecule, the “MIC P. aeruginosa ATCC 27853” value [4, 12] was 256 µg/mL (≈ 260 µM) and the “MIC P. aeruginosa ATCC 27853” value [4, 13] was 128 µg/mL (≈ 130 µM).
